In ChEMBL document CHEMBL1145681, “Inhibitory effect of dehydroevodiamine and evodiamine on nitric oxide production in cultured murine macrophages” (J Nat Prod, 1997):
Activity calls are given as the source filed them. The rule behind the calls is not given here.

Key:
RAW264.7 [1] = assay: Antiinflammatory activity in IFN-gamma/LPS-stimulated mouse RAW264.7 cells assessed as inhibition of NO production at 50 uM treated after 2 hrs of LPS addition measured after 19 hrs relative to control; values are per cent of control
RAW264.7 [2] = assay: Antiinflammatory activity in IFN-gamma/LPS-stimulated mouse RAW264.7 cells assessed as NO production at 100 uM treated after 3 hrs of IFN-gamma stimulation and before 30 mins of LPS addition measured after 19 hrs relative to control
RAW264.7 [3] = assay: Antiinflammatory activity in IFN-gamma/LPS-stimulated mouse RAW264.7 cells assessed as inhibition of NO production at 10 uM treated after 2 hrs of LPS addition measured after 19 hrs relative to control; values are per cent of control
RAW264.7 [4] = assay: Antiinflammatory activity in IFN-gamma/LPS-stimulated mouse RAW264.7 cells assessed as inhibition of NO production at 50 uM treated after 18.5 hrs of LPS addition measured after 19 hrs relative to control; type: functional, cell-based
RAW264.7 [5] = assay: Antiinflammatory activity in IFN-gamma/LPS-stimulated mouse RAW264.7 cells assessed as NO production at 50 uM treated after 3 hrs of IFN-gamma stimulation and before 30 mins of LPS addition measured after 19 hrs relative to control
RAW264.7 [6] = assay: Antiinflammatory activity in IFN-gamma/LPS-stimulated mouse RAW264.7 cells assessed as inhibition of NO production at 100 uM treated before 30 mins of IFN-gamma stimulation in presence of LPS measured after 19 hrs relative to control; type: functional; details: values are per cent of control
RAW264.7 [7] = assay: Antiinflammatory activity in IFN-gamma/LPS-stimulated mouse RAW264.7 cells assessed as inhibition of NO production at 50 uM treated before 30 mins of IFN-gamma stimulation in presence of LPS measured after 19 hrs relative to control; type: functional; details: values are per cent of control
RAW264.7 [8] = assay: Antiinflammatory activity in IFN-gamma/LPS-stimulated mouse RAW264.7 cells assessed as inhibition of NO production at 10 uM treated after 18.5 hrs of LPS addition measured after 19 hrs relative to control; type: functional, cell-based
RAW264.7 [9] = assay: Cytotoxicity against IFN-gamma/LPS-stimulated mouse RAW264.7 cells at 10 to 100 uM treated after 3 hrs of IFN-gamma stimulation and before 30 mins of LPS addition measured after 19 hrs by MTT assay; type: cell-based; details: raw264.7, 19 h
RAW264.7 [10] = assay: Antiinflammatory activity in IFN-gamma/LPS-stimulated mouse RAW264.7 cells assessed as inhibition of NO production at 10 uM treated before 30 mins of IFN-gamma stimulation in presence of LPS measured after 19 hrs relative to control; type: functional; details: values are per cent of control
RAW264.7 [11] = assay: Antiinflammatory activity in IFN-gamma/LPS-stimulated mouse RAW264.7 cells assessed as inhibition of NO production at 100 uM treated after 2 hrs of LPS addition measured after 19 hrs relative to control; values are per cent of control
RAW264.7 [12] = assay: Antiinflammatory activity in IFN-gamma/LPS-stimulated mouse RAW264.7 cells assessed as NO production at 10 uM treated after 3 hrs of IFN-gamma stimulation and before 30 mins of LPS addition measured after 19 hrs relative to control
RAW264.7 [13] = assay: Cytotoxicity against IFN-gamma/LPS-stimulated mouse RAW264.7 cells at 10 to 100 uM treated after 2 hrs of LPS addition measured after 19 hrs by MTT assay; type: cell-based; details: raw264.7, 19 h
RAW264.7 [14] = assay: Antiinflammatory activity in IFN-gamma/LPS-stimulated mouse RAW264.7 cells assessed as inhibition of NO production at 30 uM treated after 18.5 hrs of LPS addition measured after 19 hrs relative to control; type: functional, cell-based
RAW264.7 [15] = assay: Cytotoxicity against IFN-gamma/LPS-stimulated mouse RAW264.7 cells at 10 to 100 uM treated after 18.5 hrs of LPS addition measured after 19 hrs by MTT assay; type: cell-based; details: raw264.7, 19 h
RAW264.7 [16] = assay: Antiinflammatory activity in IFN-gamma/LPS-stimulated mouse RAW264.7 cells assessed as inhibition of NO production at 30 uM treated before 30 mins of IFN-gamma stimulation in presence of LPS measured after 19 hrs relative to control; type: functional
RAW264.7 [17] = assay: Antiinflammatory activity in IFN-gamma/LPS-stimulated mouse RAW264.7 cells assessed as inhibition of NO production at 30 uM treated after 3 hrs of IFN-gamma stimulation and before 30 mins of LPS addition measured after 19 hrs relative to control; type: functional, cell-based
RAW264.7 [18] = assay: Antiinflammatory activity in IFN-gamma/LPS-stimulated mouse RAW264.7 cells assessed as inhibition of NO production at 50 uM treated after 3 hrs of IFN-gamma stimulation and before 30 mins of LPS addition measured after 19 hrs relative to control; type: functional
RAW264.7 [19] = assay: Antiinflammatory activity in IFN-gamma/LPS-stimulated mouse RAW264.7 cells assessed as inhibition of NO production at 100 uM treated after 3 hrs of IFN-gamma stimulation and before 30 mins of LPS addition measured after 19 hrs relative to control; type: functional

| Compound | NO level, % of control (RAW264.7 [1]) [%] | level, % of control at 100 µM (RAW264.7 [2]) [%] | NO level, % of control (RAW264.7 [3]) [%] | Activity (RAW264.7 [4]) | level, % of control at 50 µM (RAW264.7 [5]) [%] | response, % of control at 100 µM (RAW264.7 [6]) [%] | response, % of control at 50 µM (RAW264.7 [7]) [%] | Activity (RAW264.7 [8]) | Activity (RAW264.7 [9]) | response, % of control at 10 µM (RAW264.7 [10]) [%] | NO level, % of control (RAW264.7 [11]) [%] | level, % of control at 10 µM (RAW264.7 [12]) [%] | Activity (RAW264.7 [13]) | Activity (RAW264.7 [14]) | Activity (RAW264.7 [15]) | inhibition at 30 µM (RAW264.7 [16]) [%] | Activity (RAW264.7 [17]) | Activity (RAW264.7 [18]) | Activity (RAW264.7 [19]) |
| --- | --- | --- | --- | --- | --- | --- | --- | --- | --- | --- | --- | --- | --- | --- | --- | --- | --- | --- | --- |
| C[n+]1c2n(c(=O)c3ccccc31)CCc1c-2[nH]c2ccccc12 [DEHYDROEVODIAMINE] | 77 | 23.2 | 84.3 | inactive | 78.1 | 44 | 74.2 | inactive | Not Active | 80.6 | 24.2 | 86.1 | Non-toxic | inactive | – | – | – | – | – |
| CN1c2ccccc2C(=O)N2CCc3c([nH]c4ccccc34)[C@H]21 [EVODIAMINE] | – | – | – | – | – | – | – | – | Not Active | – | – | – | Non-toxic | – | Non-toxic | – | – | – | – |
| CN1c2ccccc2C(=O)N2CCc3c([nH]c4ccccc34)[C@@H]21 [EVODIAMINE] | – | – | – | – | – | – | 68.3 | – | – | 79.5 | – | – | – | – | – | 50.6 | inactive | inactive | inactive |
